We go through 13 compounds from patent US8624027B2, “Combination therapy for treating cancer and diagnostic assays for use therein” (AbbVie Inc., priority 2005, dated 2014).

In general, Ki refers to a dissociation constant, usually derived from enzyme kinetics or from competition with a known ligand. For orientation: EC50 means the concentration that produces a half-maximal response.

The structures appear in SMILES notation. Like-named read-outs stand apart in the source and are kept apart here. Where only a bound is given, the exact number is not on record here.

One series addresses T1, Bcl-2 protein (Homo sapiens, UniProt P10415, DELINS35-91DVEENRTEAPEGTESE, form not given).
T1 construct: fused on or other part: A short piece of the Bcl-xL (Q07817) loop replaces Bcl-2 loop residues 35-91; The C-terminal membrane anchor is absent
Briefly: Bcl-2 binding affinity, fluorescence polarization with fluorescein-labeled BAX peptide. To be noted: Wang's equation, read-out: Target Binding Affinity Ki (Bcl-2).

In another series the target is Bcl-XL protein (Homo sapiens, UniProt Q07817). Briefly: Bcl-XL binding affinity, fluorescence polarization with fluorescein-labeled BAD peptide. To be noted: Wang's equation, read-out: Target Binding Affinity Ki (Bcl-XL). For orientation: Fluorescence polarisation rises when a labelled molecule tumbles more slowly, as on binding a larger partner.
Sequence of Bcl-XL protein (Q07817 with tags, fused parts or gaps DEL45-84): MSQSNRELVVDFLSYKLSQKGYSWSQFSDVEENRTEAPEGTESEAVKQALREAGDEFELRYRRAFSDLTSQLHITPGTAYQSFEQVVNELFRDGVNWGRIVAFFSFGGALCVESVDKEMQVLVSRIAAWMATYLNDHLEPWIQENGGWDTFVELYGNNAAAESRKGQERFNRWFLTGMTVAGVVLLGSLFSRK
Series [1] has as its system NCI-H146 human small cell lung carcinoma cells. The series is described as follows: Cellular efficacy in human tumor cell line (MTS viability assay). The format is cell-based. To be noted: NCI-H146, 10% human serum, 48 hours. In a few lines:
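Cells plated at 50,000/well in medium with 10% human serum in place of FBS. Treated with 2-fold serial dilutions from 10 μM to 0.020 μM, in duplicate, at least 3 separate runs. Viable cells measured by MTS after 48 h of compound exposure.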
On the technique in general: Tetrazolium dyes change colour on reduction, which living cells bring about.

Series [2] in a line: Pharmacokinetic evaluation in rat. The format is in vivo. To be noted: male, Sprague-Dawley, plasma; for AUC(0-inf): single 5 mg/kg oral dose, Table 1, read-out: Pharmacokinetic area under the plasma concentration Curve (rat) AUC0-∞. In a few lines: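 Male Sprague-Dawley rats (n=3/group) received a single 2 mg/kg IV (jugular slow bolus) or 5 mg/kg oral gavage dose in 10% DMSO/PEG-400; tail-vein plasma sampled to 24 h. Acetonitrile-precipitated plasma quantified by LC-MS/MS (LOQ 0.01 μg/mL); AUC0-∞ by linear trapezoidal rule plus Ct/β extrapolation.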

[3] abbreviates: Table 1, read-out: NCI-H146 Cellular Efficacy EC50.

T1 sequence (P10415 with tags, fused parts or gaps with the stated changes): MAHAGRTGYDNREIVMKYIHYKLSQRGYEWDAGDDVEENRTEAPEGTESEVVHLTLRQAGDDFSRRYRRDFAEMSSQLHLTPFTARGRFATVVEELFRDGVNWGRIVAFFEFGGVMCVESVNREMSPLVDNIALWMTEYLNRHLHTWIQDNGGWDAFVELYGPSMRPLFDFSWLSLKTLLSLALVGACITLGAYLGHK
Protocol for Bcl-2 protein: Binding affinity of compounds having formula (II) to Bcl-2 protein is indicia of their inhibition of the activity of this protein.
(§1) Ki values shown in the tables below were determined using Wang's equation (Wang Z X., An Exact Mathematical Expression For Describing Competitive Binding Of Two Different Ligands To A Protein Molecule. FEBS Lett. 1995; 360:111-4)).
Protocol for Bcl-XL protein: A mixture comprising 125 μL per well of assay buffer (20 mM phosphate buffer (pH 7.4), 1 mM EDTA, 50 mM NaCl, 0.05% PF-68), 6 nM of Bcl-XL protein (prepared as described in Science 1997, 275, 983-986), 1 nM fluorescein-labeled BAD peptide (prepared in-house) and the DMSO solution of the compound was shaken for 2 minutes and placed in a LJL Analyst (LJL Bio Systems, CA). A negative control (DMSO, 15 nM BAD peptide, assay buffer) and a positive control (DMSO, 1 nM BAD peptide, 6 nM Bcl-XL, assay buffer) were used to determine the range of the assay. Polarization was measured at room temperature using a continuous Fluorescein lamp (excitation 485 nm, emission 530 nm). Percentage of inhibition was determined by (1-((mP value of well-negative control)/range))×100%.
as §1

Turning to `CC1(C)CCC(CN2CCN(c3ccc(C(=O)NS(=O)(=O)c4ccc(N[C@H](CCN5CCOCC5)CSc5ccccc5)c(S(=O)(=O)C(F)(F)Cl)c4)cc3)CC2)=C(c2ccc(Cl)cc2)C1` [Example 2, 3-((chloro(difluoro)methyl)sulfonyl)-N-(4-(4-((2-(4-chlorophenyl)-4,4-dimethylcyclohex-1-en-1-yl)methyl)piperazin-1-yl)benzoyl)-4-(((1R)-3-(morpholin-4-yl)-1-((phenylsulfanyl)methyl)propyl)amino)benzenesulfonamide], the Ki at Bcl-2 protein and on Bcl-XL protein was no more than 1 nM throughout. For the same compound, the EC50 in series [1] (setting [3]) was determined as 29.1 nM. Moreover, the AUC(0-inf) in series [2] worked out at 7.01 µM·h.

On to `O=C(NS(=O)(=O)c1ccc(N[C@H](CCN2CCCCCC2)CSc2ccccc2)c(S(=O)(=O)C(F)(F)F)c1)c1ccc(N2CCN(CC3=C(c4ccc(Cl)cc4)CCCC3)CC2)cc1` [Example 16, 4-(((1R)-3-(azepan-1-yl)-1-((phenylsulfanyl)methyl)propyl)amino)-N-(4-(4-((2-(4-chlorophenyl)-1-cyclohex-1-en-1-yl)methyl)piperazin-1-yl)benzoyl)-3-((trifluoromethyl)sulfonyl)benzenesulfonamide], for which the inhibition constant (Ki) at Bcl-2 protein and on Bcl-XL protein was no more than 2 nM each time. Further, the EC50 in series [1] (setting [3]) was found to be 37.4 nM. Also, the AUC(0-inf) in series [2] amounted to 2.37 µM·h.

Turning to `CC1(C)CCC(CN2CCN(c3ccc(C(=O)NS(=O)(=O)c4ccc(N[C@H](CCN5CCOCC5)CSc5ccccc5)c(S(=O)(=O)C(F)(F)F)c4)cc3)CC2)=C(c2ccc(Cl)cc2)C1` [Example 24, N-(4-(4-((2-(4-chlorophenyl)-4,4-dimethylcyclohex-1-en-1-yl)methyl)piperazin-1-yl)benzoyl)-4-(((1R)-3-(morpholin-4-yl)-1-((phenylsulfanyl)methyl)propyl)amino)-3-((trifluoromethyl)sulfonyl)benzenesulfonamide], the Ki on Bcl-2 protein and on Bcl-XL protein was no more than 1 nM each time. The EC50 in series [1] (setting [3]) was 44.3 nM. Also, the AUC(0-inf) in series [2] was determined as 8.04 µM·h.

As for `CC1(C)CCC(CN2CCN(c3ccc(C(=O)NS(=O)(=O)c4ccc(N[C@H](CCN5CCCC5)CSc5ccccc5)c(S(=O)(=O)C(F)(F)Cl)c4)cc3)CC2)=C(c2ccc(Cl)cc2)C1` [Example 31, 3-((chloro(difluoro)methyl)sulfonyl)-N-(4-(4-((2-(4-chlorophenyl)-4,4-dimethylcyclohex-1-en-1-yl)methyl)piperazin-1-yl)benzoyl)-4-(((1R)-1-((phenylsulfanyl)methyl)-3-(pyrrolidin-1-yl)propyl)amino)benzenesulfonamide], the Ki on Bcl-2 protein and on Bcl-XL protein was no more than 1 nM each time. Besides, the EC50 in series [1] (setting [3]) is 13 nM. Besides, the AUC(0-inf) in series [2] was 5.1 µM·h.

Consider `CC(C)N(C)CC[C@H](CSc1ccccc1)Nc1ccc(S(=O)(=O)NC(=O)c2ccc(N3CCN(CC4=C(c5ccc(Cl)cc5)CC(C)(C)CC4)CC3)cc2)cc1S(=O)(=O)C(F)(F)Cl` [Example 22, 3-((chloro(difluoro)methyl)sulfonyl)-N-(4-(4-((2-(4-chlorophenyl)-4,4-dimethylcyclohex-1-en-1-yl)methyl)piperazin-1-yl)benzoyl)-4-(((1R)-3-(isopropyl(methyl)amino)-1-((phenylsulfanyl)methyl)propyl)amino)benzenesulfonamide], for which the inhibition constant (Ki) at Bcl-2 protein and at Bcl-XL protein was no more than 1 nM each time. Further, in series [1] (setting [3]), the EC50 worked out at 38.8 nM. The AUC(0-inf) in series [2] is 4.08 µM·h.

For the compound `O=C(NS(=O)(=O)c1ccc(N[C@H](CCN2CC3CC2CO3)CSc2ccccc2)c(S(=O)(=O)C(F)(F)Cl)c1)c1ccc(N2CCN(CC3=C(c4ccc(Cl)cc4)CCCCC3)CC2)cc1` (stereo partly drawn) [Example 13, 3-((chloro(difluoro)methyl)sulfonyl)-N-(4-(4-((2-(4-chlorophenyl)cyclohept-1-en-1-yl)methyl)piperazin-1-yl)benzoyl)-4-(((1R)-3-(2-oxa-5-azabicyclo[2.2.1]hept-5-yl)-1-((phenylsulfanyl)methyl)propyl)amino)benzenesulfonamide], the Ki at Bcl-2 protein and on Bcl-XL protein was no more than 1 nM each time. Besides, the EC50 in series [1] (setting [3]) was 19 nM. In addition, the AUC(0-inf) in series [2] came out at 2.06 µM·h.

Consider `CC1(C)CCC(c2ccc(Cl)cc2)=C(CN2CCN(c3ccc(C(=O)NS(=O)(=O)c4ccc(N[C@H](CCN5CC6CC5CO6)CSc5ccccc5)c(S(=O)(=O)C(F)(F)Cl)c4)cc3)CC2)C1` (stereo partly drawn) [Example 11, 3-((chloro(difluoro)methyl)sulfonyl)-N-(4-(4-((2-(4-chlorophenyl)-5,5-dimethylcyclohex-1-en-1-yl)methyl)piperazin-1-yl)benzoyl)-4-(((1R)-3-(2-oxa-5-azabicyclo[2.2.1]hept-5-yl)-1-((phenylsulfanyl)methyl)propyl)amino)benzenesulfonamide], for which the Ki at Bcl-2 protein is no more than 2 nM; at Bcl-XL protein, no more than 3 nM. In addition, in series [1] (setting [3]), the EC50 amounted to 20.6 nM. In addition, the AUC(0-inf) in series [2] is 2.4 µM·h.

With `CC1(C)CCC(c2ccc(Cl)cc2)=C(CN2CCN(c3ccc(C(=O)NS(=O)(=O)c4ccc(N[C@H](CCN5CC6CC5CO6)CSc5ccccc5)c(S(=O)(=O)C(F)(F)F)c4)cc3)CC2)C1` (stereo partly drawn) [Example 10, N-(4-(4-((2-(4-chlorophenyl)-5,5-dimethylcyclohex-1-en-1-yl)methyl)piperazin-1-yl)benzoyl)-4-(((1R)-3-(2-oxa-5-azabicyclo[2.2.1]hept-5-yl)-1-((phenylsulfanyl)methyl)propyl)amino)-3-((trifluoromethyl)sulfonyl)benzenesulfonamide], the Ki on Bcl-2 protein and at Bcl-XL protein was no more than 1 nM in each case. The EC50 in series [1] (setting [3]) was found to be 34.2 nM. Besides, in series [2], the AUC(0-inf) turned out to be 2.48 µM·h.

Turning to `CC(C)N(C)CC[C@H](CSc1ccccc1)Nc1ccc(S(=O)(=O)NC(=O)c2ccc(N3CCN(CC4=C(c5ccc(Cl)cc5)CCC(C)(C)C4)CC3)cc2)cc1S(=O)(=O)C(F)(F)F` [Example 4, N-(4-(4-((2-(4-chlorophenyl)-5,5-dimethylcyclohex-1-en-1-yl)methyl)piperazin-1-yl)benzoyl)-4-(((1R)-3-(isopropyl(methyl)amino)-1-((phenylsulfanyl)methyl)propyl)amino)-3-((trifluoromethyl)sulfonyl)benzenesulfonamide], the inhibition constant Ki on Bcl-2 protein and at Bcl-XL protein was no more than 1 nM in each case. Besides, in series [1] (setting [3]), the EC50 came out at 58.7 nM. In addition, the AUC(0-inf) in series [2] stood at 6.34 µM·h.

Consider `CN(C)CC[C@H](CSc1ccccc1)Nc1ccc(S(=O)(=O)NC(=O)c2ccc(N3CCN(Cc4ccccc4-c4ccc(Cl)cc4)CC3)cc2)cc1S(=O)(=O)C(F)(F)F` [Example 38, N-(4-(4-((4′-chloro(1,1′-biphenyl)-2-yl)methyl)-1-piperazinyl)benzoyl)-4-(((1R)-3-(dimethylamino)-1-((phenylsulfanyl)methyl)propyl)amino)-3-((trifluoromethyl)sulfonyl)benzenesulfonamide], for which the Ki on Bcl-2 protein and at Bcl-XL protein was no more than 1 nM in each case. Also, the EC50 in series [1] (setting [3]) is 39.4 nM; in series [1] (Table 2, read-out: NCI-H146 Cellular Efficacy H146, EC50), 39 nM. For the same compound, the AUC in series [2] (5 mg/kg, oral, Table 2, read-out: Pharmacokinetic area under the plasma concentration curve (rat) AUC) amounted to 0.665 µM·h. For the same compound, the Cmax in series [2] (5 mg/kg, oral, Table 2, read-out: Pharmacokinetic peak plasma concentration (rat) Cmax) was found to be 72 nM. Further, the AUC(0-inf) in series [2] stood at 0.67 µM·h.

On to `CC(C)N(C)CC[C@H](CSc1ccccc1)Nc1ccc(S(=O)(=O)NC(=O)c2ccc(N3CCN(CC4=C(c5ccc(Cl)cc5)CCC(C)(C)C4)CC3)cc2)cc1S(=O)(=O)C(F)(F)Cl` [Example 23, 3-((chloro(difluoro)methyl)sulfonyl)-N-(4-(4-((2-(4-chlorophenyl)-5,5-dimethylcyclohex-1-en-1-yl)methyl)piperazin-1-yl)benzoyl)-4-(((1R)-3-(isopropyl(methyl)amino)-1-((phenylsulfanyl)methyl)propyl)amino)benzenesulfonamide], for which the Ki at Bcl-2 protein and at Bcl-XL protein was no more than 1 nM each time. In series [1] (setting [3]), the EC50 was 52.8 nM. For the same compound, the AUC(0-inf) in series [2] worked out at 3.54 µM·h.

On to `CC1(C)CCC(CN2CCN(c3ccc(C(=O)NS(=O)(=O)c4ccc(N[C@H](CCN5C[C@@H]6C[C@H]5CO6)CSc5ccccc5)c(S(=O)(=O)C(F)(F)Cl)c4)cc3)CC2)=C(c2ccc(Cl)cc2)C1` [Example 25, 3-((chloro(difluoro)methyl)sulfonyl)-N-(4-(4-((2-(4-chlorophenyl)-4,4-dimethylcyclohex-1-en-1-yl)methyl)piperazin-1-yl)benzoyl)-4-(((1R)-3-((1S,4S)-2-oxa-5-azabicyclo[2.2.1]hept-5-yl)-1-((phenylsulfanyl)methyl)propyl)amino)benzenesulfonamide], for which the Ki on Bcl-2 protein and at Bcl-XL protein was no more than 1 nM each time. The EC50 in series [1] (setting [3]) was 16.4 nM. Moreover, in series [2], the AUC(0-inf) was found to be 1.67 µM·h.

For the compound `CC(C)N(C)CC[C@H](CSc1ccccc1)Nc1ccc(S(=O)(=O)NC(=O)c2ccc(N3CCN(CC4=C(c5ccc(Cl)cc5)CCCCC4)CC3)cc2)cc1S(=O)(=O)C(F)(F)F` [Example 5, N-(4-(4-((2-(4-chlorophenyl)-1-cyclohepten-1-yl)methyl)piperazin-1-yl)benzoyl)-4-(((1R)-3-(isopropyl(methyl)amino)-1-((phenylsulfanyl)methyl)propyl)amino)-3-((trifluoromethyl)sulfonyl)benzenesulfonamide], the Ki at Bcl-2 protein and on Bcl-XL protein was no more than 1 nM throughout. The EC50 in series [1] (setting [3]) amounted to 38.8 nM. For the same compound, the AUC(0-inf) in series [2] was determined as 2.22 µM·h.
